Experimental data reported in patent US9636409B2, “Enzyme and receptor modulation using covalent conjugates of alpha,alpha-disubstituted glycine esters” (GlaxoSmithKline Intellectual Property Development Limited, priority 2008, dated 2017).
Where two headings read alike, the source gives them in different places.

Experiments:
HUT 78 cells = assay: HUT cell inhibition assay (WST-1 proliferation); assay type: cell-based; conditions: Table 5; for Ratio IC50s in HUT 78 to U937 cells: proliferation IC50s
Protocol: (§1) U937 and HUT Cell Inhibition Assay
(§2) Cancer cell lines (U937 and HUT) growing in log phase were harvested and seeded at 1000-2000 cells/well (100 μl final volume) into 96-well tissue culture plates. Following 24 hours of growth cells were treated with compound. Plates were then re-Incubated for a further 72-96 hours before a WST-1 cell viability assay was conducted according to the suppliers (Roche Applied Science) instructions.
(§3) Data were expressed as a percentage inhibition of the control, measured in the absence of Inhibitor, as follows: % inhibition=100−[(S^i/S^o)×100] where S^i is the signal in the presence of Inhibitor and S^o s the signal in the presence of DMSO.
(§4) Dose response curves were generated from 8 concentrations (top final concentration 10 μM, with 3-fold dilutions), using 6 replicates.
(§5) IC50 values were determined by non-linear regression analysis, after fitting the results to the equation for sigmoidal dose response with variable slope (% activity against log concentration of compound), using Graphpad Prism software.

[1] = biological target: histone deacetylase activity (HeLa nuclear extract); assay: Histone deacetylase activity (Fluor de Lys, HeLa nuclear extract); assay type: biochemical; conditions: read-out: Inhibition of HDAC (IC50 nM)
Protocol: Histone Deacetylase Activity
The ability of compounds to inhibit histone deacetylase activities was measured using the commercially available HDAC fluorescent activity assay from Biomol. In brief, the Fluor de Lys™ substrate, a lysine with an epsilon-amino acetylation, is incubated with the source of histone deacetylase activity (HeLa nuclear extract) in the presence or absence of inhibitor. Deacetylation of the substrate sensitises the substrate to Fluor de Lys™ developer, which generates a fluorophore. Thus, incubation of the substrate with a source of HDAC activity results in an increase in signal that is diminished in the presence of an HDAC inhibitor.
Data are expressed as a percentage of the control, measured in the absence of inhibitor, with background signal being subtracted from all samples, as follows: % activity=[(S^i−B)/(S^o−B)]×100 where S^i is the signal in the presence of substrate, enzyme and Inhibitor, S^o is the signal in the presence of substrate, enzyme and the vehicle in which the inhibitor is dissolved, and B is the background signal measured in the absence of enzyme.
IC50 values were determined by non-linear regression analysis, after fitting the results of eight data points to the equation for sigmoidal dose response with variable slope (% activity against log concentration of Compound), using Graphpad Prism software.
Histone deacetylase activity from crude nuclear extract derived from HeLa cells was used for screening. The preparation, purchased from 4C (Seneffe, Belgium), was prepared from HeLa cells harvested whilst in exponential growth phase. The nuclear extract was prepared according to the methodology described by J. D. Dignam, Nucl. Acid. Res., 1983, 11, 1475-1489, snap frozen in liquid nitrogen and stored at −80° C. The final buffer composition was 20 mM Hepes, 100 mM KCl, 0.2 mM EDTA, 0.5 mM DTT, 0.2 mM PMSF and 20% (v/v) glycerol.

U937 cells = assay: U937 cell inhibition assay (WST-1 proliferation); assay type: cell-based; conditions: for Ratio cell IC50s to enzyme IC50: U937 proliferation IC50 to HDAC enzyme IC50
Protocol: as §1, §2, §3, §4, §5

recombinant hCE-1 = biological target: T1, recombinant hCE-1 (Homo sapiens, UniProt P23141); assay: HCE-1 carboxylesterase assay; assay type: in vitro ADME; conditions: result in words
T1 sequence (P23141 18-567): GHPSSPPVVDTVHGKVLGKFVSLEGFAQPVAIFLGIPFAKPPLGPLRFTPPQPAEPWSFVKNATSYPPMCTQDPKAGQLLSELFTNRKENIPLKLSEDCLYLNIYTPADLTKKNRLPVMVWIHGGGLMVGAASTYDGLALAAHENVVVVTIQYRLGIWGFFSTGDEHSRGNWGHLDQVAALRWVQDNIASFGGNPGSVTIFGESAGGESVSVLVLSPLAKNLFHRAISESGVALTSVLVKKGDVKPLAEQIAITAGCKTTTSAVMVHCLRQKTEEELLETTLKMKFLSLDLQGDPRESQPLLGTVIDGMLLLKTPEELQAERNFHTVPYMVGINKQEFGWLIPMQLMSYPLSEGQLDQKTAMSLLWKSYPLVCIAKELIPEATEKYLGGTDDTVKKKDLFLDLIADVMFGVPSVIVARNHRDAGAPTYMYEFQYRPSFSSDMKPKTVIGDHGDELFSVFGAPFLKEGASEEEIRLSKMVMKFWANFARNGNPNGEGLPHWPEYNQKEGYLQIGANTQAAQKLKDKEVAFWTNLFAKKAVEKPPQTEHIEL
Protocol: HCE-1 Carboxylesterase Assay
Hydrolysis of esters to the corresponding carboxylic acids by hCE-1 can be measured using the following procedure. At zero time, 100 μl of recombinant hCE-1 at a concentration of 6 μg/mL in phosphate assay buffer (K2PO4 100 mM, KCl 40 mM, pH 7.4) was added to an equal volume of assay buffer containing 5 μM ester substrate. After thorough mixing, triplicate samples were incubated for 0, 20 or 80 minutes at 37° C. At the appropriate time, hydrolysis was stopped by the addition of 600 μl of acetonitrile. For zero time samples, the acetonitrile was added prior to the enzyme. The samples were analysed for the ester and its corresponding carboxylic acid at room temperature by LCMS (Sciex API 3000, HP1100 binary pump, CTC PAL). Chromatography was based on a […] (75×2.1 mm) column and a mobile phase of 5-95% acetonitrile in water/0.1% formic add. Levels of the acid, the hydrolysis product, after 80 minutes are expressed in ng/mL.

[2] = system: phosphorylation of MAPKAP-2 in HUT 78 cells; assay: p38 MAP Kinase cellular assay: inhibition of phosphorylation of MAPKAP2 in HUT 78 cells; assay type: cell-based; conditions: Table 2; for IC50: Homo sapiens, HuT78, HUT 78 non-monocyte cell line; for Ratio IC50s in HUT 78 to U937 cells: MAPKAP-2 phosphorylation IC50s
Protocol: (§6) p38 MAP Kinase Cellular Assay: Inhibition of Phosphorylation of MAPKAP2
(§7) U937 or HUT78 cells were plated in RPMI 1640, and were incubated at 37° C., 5% CO2 for 18 hours. 10 mM stocks of compounds were diluted media/0.1% DMSO to give a log or semi-log dilution series. The wells for ‘no treatment’ and ‘anisomycin’ were treated with 0.1% DMSO only. The cells were incubated at 37° C., 5% CO2 for a further 4 hours. Anisomycin was added to all wells except ‘no treatment’ at a final concentration of 10 μM. The cells were incubated at 37° C., 5% CO2 for 30 minutes before harvest. Plates were stood on ice whilst harvesting, and all following steps were carried out at 4° C. The cells were pelleted at 1000 rpm for 10 minutes at 4° C., the media aspirated, and the pellet washed with cold PBS. The pellets were lysed in 120 μl of SDS lysis buffer (62.5 mM Tris, pH 6.8, 2% SDS, 10% glycerol, 50 mM DTT, with protease inhibitors and phosphatase inhibitors added according to the manufacturers' recommendations). After 30 minutes on ice, the samples were sonicated for 5 seconds before centrifugation at 13,000 rpm 4° C. for 10 minutes to remove cell debris. 10 μl of the resulting gel samples were loaded per lane on NOVEX 4-12% Bis-Tris MOPS gels. Membranes from western transfer of gels were blotted with anti-phospho MAPKAP2, anti-phospho HSP27 and anti GAPDH according to the manufacturers' Instructions. Signal was visualised using HRP-Hnked anti-rabbit or anti-mouse antibodies, ECL reagent and ECL film. IC50 values for the various compounds were visualised from the resulting photographic images, using both band-shift and signal intensity.

[3] = system: phosphorylation of MAPKAP-2 in U937 cells; assay: p38 MAP Kinase cellular assay: inhibition of phosphorylation of MAPKAP2 in U937 cells; assay type: cell-based; conditions: for IC50: Homo sapiens, U-937; for potency in monocytic versus non monocytic cell lines (MAPKAP-2 phosphorylation): U937 versus HUT 78
Protocol: as §6, §7

p38 MAP Kinase α = biological target: T2, p38 MAP Kinase α (Homo sapiens, UniProt Q16539); assay: p38 MAP Kinase enzyme assay; assay type: biochemical; conditions: Table 1 (biology); compound as such, Ester for Example 1; read-out: Inhibition of P38 (IC50 nM)
T2 construct: purchased Upstate (Dundee UK)
T2 sequence (Q16539 whole entry): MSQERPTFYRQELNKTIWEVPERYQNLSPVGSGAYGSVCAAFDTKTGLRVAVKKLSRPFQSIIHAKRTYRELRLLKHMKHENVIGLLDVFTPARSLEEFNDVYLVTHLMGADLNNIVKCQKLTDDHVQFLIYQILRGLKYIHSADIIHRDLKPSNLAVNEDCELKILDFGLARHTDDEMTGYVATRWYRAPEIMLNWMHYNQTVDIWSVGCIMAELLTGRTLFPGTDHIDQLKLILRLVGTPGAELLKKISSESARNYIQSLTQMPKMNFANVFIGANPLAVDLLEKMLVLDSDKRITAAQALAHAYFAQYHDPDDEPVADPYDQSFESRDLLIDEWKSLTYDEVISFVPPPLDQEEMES
Protocol: p38 MAP Kinase Enzyme Assay
The ability of compounds to inhibit p38 MAPα Kinase activity was measured in an assay performed by Upstate (Dundee UK). In a final reaction volume of 25 μL, p38 MAP Kinase α (5-10 mU) is incubated with 25 mM Tris pH 7.5, 0.02 mM EGTA, 0.33 mg/mL myelin basic protein, 10 mM MgAcetate and [γ-^33P-ATP](specific activity approx. 500 cpm/pmol, concentration as required). The reaction is initiated by the addition of the MgATP mix. After incubation for 40 minutes at room temperature, the reaction is stopped by the addition of 5 μL of a 3% phosphoric acid solution. 10 μL of the reaction is then spotted onto a P30 filtermat and washed three times for 5 minutes in 75 mM phosphoric acid and once in methanol prior to drying and scintillation counting.
Duplicate data points are generated from a 1/3 log dilution series of a stock solution in DMSO. Nine dilutions steps are made from a top concentration of […], and a ‘no compound’ blank is included. The standard radiometric filter-binding assay is performed at an ATP concentration at, or close to, the Km. Data from scintillation counts are collected and subjected to free-fit analysis by Prism software. From the curve generated, the concentration giving 50% inhibition is determined and reported.

[4] = Table 4, compound as such, Ester for Examples 7 and 9
[5] = Table 5, compound as such, Ester for Examples 7 and 9
[6] = Table 2, U937 monocyte cell line, read-out: Inhibition of phosphorylation of MAPKAP-2 in U937 cells (IC50, nM) (monocyte cell line)

IC50 [1, 4] [nM]	IC50 [1, 5] [nM]	Ratio cell IC50s to enzyme IC50 (U937 cells; Table 4)	IC50 [2] [nM]	IC50 [3, 6] [nM]	SMILES	Ratio IC50s in HUT 78 to U937 cells (HUT 78 cells)	Ratio IC50s in HUT 78 to U937 cells [2]	potency in monocytic versus non monocytic cell lines (MAPKAP-2 phosphorylation) [3]	other results
2600	2600	>3.85	–	–	O=C(CCc1ccccc1)NO [Compound IV, N-Hydroxy-3-phenyl-propionamide, reference compound]	~1	–	–	inhibition at 10 µM (HUT 78 cells; Homo sapiens, HuT78, @ 10 μM): 10%; inhibition at 10 µM (U937 cells; Homo sapiens, U-937, Table 4, @ 10 μM): 13%; Inhibition of proliferation in U937 cells (U937 cells; Table 5, @ 10 μM): 13% @ 10 μM
4200	4200	0.043	–	–	O=C(CCc1ccc(CNC2(C(=O)OC3CCCC3)CCCC2)cc1)NO [Example 7, Cyclopentyl 1-({4-[3-(hydroxyamino)-3-oxopropyl]benzyl}amino)cyclopentanecarboxylate]	34	–	–	IC50 (HUT 78 cells; Homo sapiens, HuT78, HUT 78 cells): 6200 nM; hydrolysis by hCE-1 (recombinant hCE-1): hydrolysed by hCE-1; IC50 ([1]; Table 4, Acid = carboxylic acid hydrolysis product of the ester): 6120 nM; IC50 ([1]; Table 5, Acid = carboxylic acid hydrolysis product of the ester): 6120 nM; IC50 (U937 cells; Homo sapiens, U-937, Table 4, head prints no unit, same values in Table 5 as IC50 nM, read-out: Inhibition of proliferation in U937 cells): 180 nM; IC50 (U937 cells; Homo sapiens, U-937, Table 5, U937 cells, read-out: Inhibition of proliferation in U937 cells (IC50 nM)): 180 nM; potency in monocytic (U937) versus non monocytic (Hut78) cell lines (proliferation) (U937 cells; U937 versus Hut78): 30 times; potency in the cellular (U937 proliferation) assay compared with the parent compound (U937 cells; versus Compound IV): significantly more potent than the parent compound
–	–	–	10000	100	Nc1c(C(=O)c2ccc(F)cc2F)ccc(=O)n1-c1ccc(CCNC2(C(=O)OC3CCCC3)CCCC2)cc1 [Example 3]	–	100	100 times	–
–	–	–	450	300	Nc1c(C(=O)c2ccc(F)cc2F)ccc(=O)n1-c1ccccc1 [Compound I, reference compound]	–	1.5	equipotent	IC50 (p38 MAP Kinase α): 50 nM; IC50 ([3]; Table 1 (biology), U937 cells, read-out: Inhibition of phosphorylation of MAPKAP-2 in U937 cells (IC50)): 300 nM; Ratio cell IC50s to enzyme IC50 ([3]; U937 MAPKAP-2 IC50 to P38 enzyme IC50): 6
